Data as given in patent US4202975A, “Isoxazolo[3,4-d]pyrimidines” (Takeda Chemical Industries, Ltd., priority 1976, dated 1980).

What was measured:
Type in all cases: in vivo
phenylquinone-writhing = assay: Analgesic action (mouse, phenylquinone-writhing test); conditions: 10 mice
Excerpt: |(mouse, phenylquinone-writhing test)

Carrageenin edema = assay: Antiinflammatory action (rat, Carrageenin edema); conditions: 6 rats
Excerpt: Antiinflammatory action
(Rat, Carrageenin edema)

Mouse = assay: Acute toxicity (mouse, oral, mortality); conditions: 500 mg/kg oral; observed for 7 days after dosing, mortality after 8 days
Excerpt: The acute toxicity data for some representative isoxazolo[3,4-d]pyrimidines(I) are given below in Table 3.
(Mouse, observed for 7 days after dosing, mortality

[1] = 25 mg/kg oral, first experiment, control 12.7 ± 2.5
[2] = 25 mg/kg oral, second experiment, control 17.3 ± 2.6
[3] = 50 mg/kg oral, first experiment, control 12.7 ± 2.5
[4] = 50 mg/kg oral, second experiment, control 17.3 ± 2.6
[5] = 12.5 mg/kg oral, first experiment, control 0.543 ± 0.032
[6] = 25 mg/kg oral, first experiment, control 0.543 ± 0.032
[7] = 12.5 mg/kg oral, second experiment, control 17.3 ± 2.6
[8] = 6.25 mg/kg oral, second experiment, control 0.512 ± 0.017
[9] = 12.5 mg/kg oral, second experiment, control 0.512 ± 0.017
[10] = 25 mg/kg oral, third experiment, control 13.7 ± 1.2

Row | Compound | % Suppression (phenylquinone-writhing; [1]) [%] | Average number of writhings & standard error (phenylquinone-writhing; [1]) | % Suppression (phenylquinone-writhing; [2]) [%] | Average number of writhings & standard error (phenylquinone-writhing; [2]) | % Suppression (phenylquinone-writhing; [3]) [%] | Average number of writhings & standard error (phenylquinone-writhing; [3]) | Mortality (Mouse) | further results
1 | COc1ccc2c3c1O[C@H]1[C@@H](O)C=C[C@H]4[C@@H](C2)N(C)CC[C@@]341 [Codeine phosphate, reference compound] | 72.4 | 3.5 ± 1.2 |  |  |  |  |  | 
2 | Cc1onc2c1c(=O)n(C)c(=O)n2C [Ia, 3,5,7-Trimethyl-5H,7H-isoxazolo[3,4-d]pyrimidine-4,6-dione] | 54.3 | 5.8 ± 2.4 | 67.1 | 5.7 ± 1.5 | 55.9 | 5.6 ± 2.3 | 1/5 | % Suppression (phenylquinone-writhing; [4]): 93.1%; Average number of writhings & standard error (phenylquinone-writhing; [4]): 1.2 ± 0.5; % Suppression (Carrageenin edema; [5]): 21.4%; Volume of edema & standard error (Carrageenin edema; [5]): 0.427 ± 0.030 mL; % Suppression (Carrageenin edema; [6]): 35.5%; Volume of edema & standard error (Carrageenin edema; [6]): 0.350 ± 0.061 mL
3 | Cn1c(=O)c2conc2n(C)c1=O [Ib, 5,7-Dimethyl-5H,7H-isoxazolo[3,4-d]pyrimidine-4,6-dione] | 63.8 | 4.6 ± 1.2 | 77.5 | 3.9 ± 1.0 | 92.1 | 1.0 ± 0.8 | 1/5 | % Suppression (phenylquinone-writhing; [7]): 54.9%; Average number of writhings & standard error (phenylquinone-writhing; [7]): 7.8 ± 1.9; % Suppression (Carrageenin edema; [8]): 21.9%; Volume of edema & standard error (Carrageenin edema; [8]): 0.400 ± 0.037 mL; % Suppression (Carrageenin edema; [9]): 32.0%; Volume of edema & standard error (Carrageenin edema; [9]): 0.348 ± 0.014 mL
4 | CCn1c(=O)c2conc2n(CC)c1=O [Ic] |  |  |  |  |  |  |  | % Suppression (phenylquinone-writhing; [10]): 47.4%; Average number of writhings & standard error (phenylquinone-writhing; [10]): 7.2 ± 1.5
